Data on 15 molecules can be found in US20170137426A1, “HETEROCYCLIC COMPOUNDS AS AXL INHIBITORS” (CHANGZHOU JIEKAI PHARMATECH CO., LTD., priority 2014, published 2017).

A value given as a limit tells only on which side of the number the result lay.

In the assay the target is T1, human AXL (Homo sapiens, UniProt P30530).
T1 construct: his-tagged catalytic domain (amino acids 473-894) from insect cells; His tag; purchased Invitrogen PV3971; host or cells: insect cells
T1 sequence (P30530 473-894): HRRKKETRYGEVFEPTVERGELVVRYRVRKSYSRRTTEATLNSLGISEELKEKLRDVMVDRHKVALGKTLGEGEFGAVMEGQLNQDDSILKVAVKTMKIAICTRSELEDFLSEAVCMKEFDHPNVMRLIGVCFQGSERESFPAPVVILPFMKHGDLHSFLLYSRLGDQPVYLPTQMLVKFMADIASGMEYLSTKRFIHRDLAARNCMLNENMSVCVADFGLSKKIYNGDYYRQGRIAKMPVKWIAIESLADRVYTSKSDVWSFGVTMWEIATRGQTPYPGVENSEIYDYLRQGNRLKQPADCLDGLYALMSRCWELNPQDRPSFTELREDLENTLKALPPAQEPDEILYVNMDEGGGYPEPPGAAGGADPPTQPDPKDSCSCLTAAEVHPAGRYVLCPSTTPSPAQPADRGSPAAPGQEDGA
In words: AXL enzymatic assay (LanthaScreen TR-FRET). Format: biochemical. The settings on record: recombinant his-tagged catalytic domain (aa 473-894), 18 μM ATP (around Km), 200 nM Poly GT substrate, 1 h reaction. Here is the method: Example 3: AXL Enzymatic Assay
Compounds were tested in a LanthaScreen™ time-resolved fluorescence energy transfer (TR-FRET) enzymatic assay from Invitrogen. The assay used human AXL (Invitrogen, Cat. PV3971) recombinantly expressed his-tagged catalytic domain (amino acids 473-894) from insect cells. The substrate was fluorescein-labeled Poly GT (Invitrogen, Cat. PV3610). Test compounds were prepared and diluted in DMSO in 3-fold serial dilutions to 100× of the final testing concentrations. The compounds were then further diluted to 4× by the kinase reaction buffer (Invitrogen, Cat. PV3189). The enzymatic reaction for compound testing was performed in a white 384-well polypropylene plate (Packard, Cat. 6005214) with a total reaction volume of 10 μl containing 200 ng/ml AXL, 200 nM substrate, and 18 μM ATP that is around its Km. The assay started with loading 2.5 μl of AXL diluted in kinase reaction buffer to wells, followed by addition of equal volume of 4× compounds for 15-min incubation at the room temperature for pre-treatment. The enzymatic reaction was initiated by addition of 5 μl of mixture of the substrate and ATP prepared in kinase reaction buffer. After one hour reaction, 10 μl mixture of EDTA (final 10 mM) and terbium-labeled anti-PY20 antibody (final 2 nM) (Invitrogen, Cat. PV3552) prepared in TR-FRET antibody dilution buffer (Invitrogen, Cat. PV3574) was added to stop the enzymatic reaction and produce TR-FRET signals. After 30 minutes of incubation at room temperature, the plate was read in Tecan Infinite F200 Pro with the following settings: Excitation 340 nm (30)/Emission1 495 nm (10)/Emission2 520 nm (25). The TR-FRET values were dimensionless numbers that were calculated as the ratio of the acceptor ([…]) signal to the donor (Terbium) signal. Percent of control was calculated as the percentage of compound-treated vs 1% DMSO vehicle-treated. The dose-response curves were generated and the IC50s were calculated by nonlinear sigmoid curve fitting using GraphPad Prism.
A word on the IC50: it is the concentration at which inhibition is half-maximal. Consider `c1ccc(-c2ccc(-n3ccc4cnc(Nc5ccc6c(c5)CCC(N5CCCC5)CC6)nc43)cc2)cc1` (stereo not drawn) [Compound 8, 7-([1,1′-biphenyl]-4-yl)-N-(7-(pyrrolidin-1-yl)-6,7,8,9-tetrahydro-5H-benzo[7]annulen-2-yl)-7H-pyrrolo[2,3-d]pyrimidin-2-amine], for which the IC50 was greater than 1000 nM.

Consider `CC(C)Oc1ccc(-n2ccc3cnc(Nc4ccc5c(c4)CCC(N4CCCC4)CC5)nc32)cc1` (stereo not drawn) [Compound 7, 7-(4-isopropoxyphenyl)-N-(7-(pyrrolidin-1-yl)-6,7,8,9-tetrahydro-5H-benzo[7]annulen-2-yl)-7H-pyrrolo[2,3-d]pyrimidin-2-amine], for which the IC50 was 25 to 50 nM.

For `CC(C)Oc1cccnc1-n1ccc2cnc(Nc3ccc4c(c3)CCC(N3CCCC3)CC4)nc21` (stereo not drawn) [Compound 13, 7-(3-isopropoxypyridin-2-yl)-N-(7-(pyrrolidin-1-yl)-6,7,8,9-tetrahydro-5H-benzo[7]annulen-2-yl)-7H-pyrrolo[2,3-d]pyrimidin-2-amine], the IC50 lay in the range of 200 to 400 nM.

In the case of `CC(C)Oc1cc(-c2ccccc2)ccc1-n1ccc2cnc(Nc3ccc4c(c3)CCC(N3CCCC3)CC4)nc21` (stereo not drawn) [Compound 14, 7-(3-isopropoxy-[1,1′-biphenyl]-4-yl)-N-(7-(pyrrolidin-1-yl)-6,7,8,9-tetrahydro-5H-benzo[7]annulen-2-yl)-7H-pyrrolo[2,3-d]pyrimidin-2-amine], the IC50 lay in the range of 200 to 400 nM.

Consider `CC(C)Oc1cccc(-n2ccc3cnc(Nc4ccc5c(c4)CCC(N4CCCC4)CC5)nc32)c1` (stereo not drawn) [Compound 3, 7-(3-isopropoxyphenyl)-N-(7-(pyrrolidin-1-yl)-6,7,8,9-tetrahydro-5H-benzo[7]annulen-2-yl)-7H-pyrrolo[2,3-d]pyrimidin-2-amine], for which the IC50 lay within 50 to 200 nM.

For `CC(C)Oc1ccccc1-n1ccc2cnc(Nc3ccc4c(c3)CCN(C)CC4)nc21` [Compound 15, N-(7-(2-isopropoxyphenyl)-7H-pyrrolo[2,3-d]pyrimidin-2-yl)-3-methyl-2,3,4,5-tetrahydro-1H-benzo[d]azepin-7-amine], the IC50 lay in the range of 200 to 400 nM.

With `Cc1ccccc1-c1ccc(-n2ccc3cnc(Nc4ccc5c(c4)CCC(N4CCCC4)CC5)nc32)cc1` (stereo not drawn) [Compound 12, 7-(2′-methyl-[1,1′-biphenyl]-4-yl)-N-(7-(pyrrolidin-1-yl)-6,7,8,9-tetrahydro-5H-benzo[7]annulen-2-yl)-7H-pyrrolo[2,3-d]pyrimidin-2-amine], the IC50 lay in the range of 25 to 50 nM.

In the case of `CC(C)Oc1ccccc1-n1ccc2cnc(Nc3cnn(C4CCN(C)CC4)c3)nc21` [Compound 2, 7-(2-isopropoxyphenyl)-N-(1-(1-methylpiperidin-4-yl)-1H-pyrazol-4-yl)-7H-pyrrolo[2,3-d]pyrimidin-2-amine], the IC50 lay in the range of 700 to 800 nM.

`COc1ccc(-n2ccc3cnc(Nc4ccc5c(c4)CCC(N4CCCC4)CC5)nc32)c(OC(C)C)c1` (stereo not drawn) [Compound 9, 7-(2-isopropoxy-4-methoxyphenyl)-N-(7-(pyrrolidin-1-yl)-6,7,8,9-tetrahydro-5H-benzo[7]annulen-2-yl)-7H-pyrrolo[2,3-d]pyrimidin-2-amine]: the IC50 is 50 to 200 nM.

For `CC(C)Oc1cc(Cl)ccc1-n1ccc2cnc(Nc3ccc4c(c3)CCC(N3CCCC3)CC4)nc21` (stereo not drawn) [Compound 10, 7-(4-chloro-2-isopropoxyphenyl)-N-(7-(pyrrolidin-1-yl)-6,7,8,9-tetrahydro-5H-benzo[7]annulen-2-yl)-7H-pyrrolo[2,3-d]pyrimidin-2-amine], the IC50 is less than 25 nM.

On to `c1ccc(Oc2ccccc2-n2ccc3cnc(Nc4ccc5c(c4)CCC(N4CCCC4)CC5)nc32)cc1` (stereo not drawn) [Compound 5, 7-(2-phenoxyphenyl)-N-(7-(pyrrolidin-1-yl)-6,7,8,9-tetrahydro-5H-benzo[7]annulen-2-yl)-7H-pyrrolo[2,3-d]pyrimidin-2-amine], for which the IC50 lay in the range of 700 to 800 nM.

Turning to `CC(C)NC(=O)c1ccccc1-n1ccc2cnc(Nc3ccc4c(c3)CCC(N3CCCC3)CC4)nc21` (stereo not drawn) [Compound 11, N-isopropyl-2-(2-((7-(pyrrolidin-1-yl)-6,7,8,9-tetrahydro-5H-benzo[7]annulen-2-yl)amino)-7H-pyrrolo[2,3-d]pyrimidin-7-yl)benzamide], the IC50 is greater than 1000 nM.

In the case of `CC(C)Oc1ccccc1-n1ccc2cnc(Nc3ccc4c(c3)CCC(N3CCCC3)CC4)nc21` (stereo not drawn) [Compound 1, 7-(2-isopropoxyphenyl)-N-(7-(pyrrolidin-1-yl)-6,7,8,9-tetrahydro-5H-benzo[7]annulen-2-yl)-7H-pyrrolo[2,3-d]pyrimidin-2-amine], the IC50 lay within 25 to 50 nM.

Take `Cc1ccccc1Oc1ccccc1-n1ccc2cnc(Nc3ccc4c(c3)CCC(N3CCCC3)CC4)nc21` (stereo not drawn) [Compound 6, N-(7-(pyrrolidin-1-yl)-6,7,8,9-tetrahydro-5H-benzo[7]annulen-2-yl)-7-(2-(o-tolyloxy)phenyl)-7H-pyrrolo[2,3-d]pyrimidin-2-amine]: the IC50 was less than 25 nM.

As for `c1ccc(-n2ccc3cnc(Nc4ccc5c(c4)CCC(N4CCCC4)CC5)nc32)c(OC2CCCCC2)c1` (stereo not drawn) [Compound 4, 7-(2-(cyclohexyloxy)phenyl)-N-(7-(pyrrolidin-1-yl)-6,7,8,9-tetrahydro-5H-benzo[7]annulen-2-yl)-7H-pyrrolo[2,3-d]pyrimidin-2-amine], the IC50 lay within 200 to 400 nM.
